For 28 compounds, class results are on record in patent publication US20050197350A1, “Novel quinoline, tetrahydroquinazoline, and pyrimidine derivatives and methods of treatment related to the use thereof” (TAISHO PHARMACEUTICAL CO., LTD., priority 2003, published 2005).

In the test the test system is MCH receptors. As to the kind of experiment: MCH receptor activity class (method not given).
The mark [1] stands for this setting: class by percent of control at 10^-7 M or IC50.
[2] abbreviates: MCH receptor, class by percent of control at 10^-7 M or IC50.
[3] abbreviates: MCH receptor activity class 1-3 (percent of control at 10^-7 M or IC50).
Setting [4] is: class by percent of control at 10^−7 M or IC50.
The mark [5] stands for this setting: activity class 1-3: percent of control at 10^-7 M or IC50.
The mark [6] stands for this setting: activity class per percent of control at 10^-7 M or IC50.

With `Cc1cc(Br)cc(C)c1NC(=O)N[C@H]1CC[C@@H](Nc2cc(N(C)C)c3ccccc3n2)CC1` [compound 2120], the class under setting [1] was 1 (Class 1: The value of percent of control at 10^−7 M was less than 40% or the value of IC50 was less than 50 nM.).

On to `CN(C)c1cc(N[C@H]2CC[C@@H](NC(=O)c3ccc(F)c(F)c3F)CC2)nc2ccccc12` [compound 124], for which the class under setting [2] was 3 (Class 3 The value of percent of control at 10^−7 M was more than 60% or the value of IC50 was more than 200 nM.).

For the compound `COc1ccc(NC(=O)N[C@H]2CC[C@@H](Nc3cc(N(C)C)c4ccccc4n3)CC2)cc1OC1CCCC1` [compound 2163], under setting [1], the class is recorded as 3 (Class 3 The value of percent of control at 10^−7 M was more than 60% or the value of IC50 was more than 200 nM.).

On to `Cc1ccccc1NC(=O)NC[C@H]1CC[C@@H](Nc2cc(N(C)C)c3ccccc3n2)CC1` [compound 2368], for which the class under setting [3] is on record as 3 (Class 3 The value of percent of control at 10^−7 M was more than 60% or the value of IC50 was more than 200 nM.).

Take `CSc1sc(C(=O)N[C@H]2CC[C@@H](Nc3cc(N(C)C)c4ccccc4n3)CC2)c(I)c1S(=O)(=O)C(C)C` [compound 766]: under setting [1], the class is listed as 3 (Class 3 The value of percent of control at 10^−7 M was more than 60% or the value of IC50 was more than 200 nM.).

Regarding `COc1cc(CNC[C@H]2CC[C@@H](Nc3nccc(N(C)C)n3)CC2)cc(F)c1O` [compound 1320], the class under setting [1] was 3 (Class 3 The value of percent of control at 10^−7 M was more than 60% or the value of IC50 was more than 200 nM.).

`CN(C)c1ccnc(N[C@H]2CC[C@@H](NC(=O)c3cccc(C(F)(F)F)c3)CC2)n1` [compound 334, N-(cis-4-{[4-(dimethylamino)pyrimidin-2-yl]amino}cyclohexyl)-3-(trifluoromethyl)benzamide]: the class under setting [1] is 2 (Class 2: The value of percent of control at 10^−7 M was from 40% to 60% or the value of IC′50 was from 50 nM to 200 nM.).

For `Cc1cnc(N[C@H]2CC[C@@H](C(=O)Nc3ccccc3Br)CC2)nc1N(C)C` [compound 2789], the class under setting [4] was 3 (Class 3 The value of percent of control at 10^−7 M was more than 60% or the value of IC50 was more than 200 nM.).

For the compound `CCC(C(=O)NC[C@H]1CC[C@@H](Nc2cc(N(C)C)c3ccccc3n2)CC1)c1ccccc1` (relative stereo) [compound 193], the class under setting [2] is given as 3 (Class 3 The value of percent of control at 10^−7 M was more than 60% or the value of IC50 was more than 200 nM.).

With `CCO[Si](CCCNC(=O)N[C@H]1CC[C@@H](Nc2nc3c(c(N(C)C)n2)CCCC3)CC1)(OCC)OCC` [compound 1839], the class under setting [1] is recorded as 3 (Class 3 The value of percent of control at 10^−7 M was more than 60% or the value of IC50 was more than 200 nM.).

Consider `Cc1cc(C(=O)N[C@H]2CC[C@@H](Nc3nc4c(c(N(C)C)n3)CCCC4)CC2)ccc1[N+](=O)[O-]` [compound 965], for which the class under setting [1] was 1 (Class 1: The value of percent of control at 10^−7 M was less than 40% or the value of IC50 was less than 50 nM.).

`CN(C)c1ccnc(N[C@H]2CC[C@@H](CNC(=O)c3c(Cl)cccc3Cl)CC2)n1` [compound 439]: the class (class 1-3 by percent of control at 10^-7 M or IC50) is recorded as 3 (Class 3 The value of percent of control at 10^−7 M was more than 60% or the value of IC50 was more than 200 nM.).

As for `CN(C)c1cc(N[C@H]2CC[C@@H](CNC(=O)c3cccs3)CC2)nc2ccccc12` [compound 179], under setting [2], the class is listed as 3 (Class 3 The value of percent of control at 10^−7 M was more than 60% or the value of IC50 was more than 200 nM.).

As for `COc1cccc(CNC(=S)N[C@H]2CC[C@@H](Nc3nc4c(c(N(C)C)n3)CCCC4)CC2)c1` [compound 2044], the class under setting [2] is 3 (Class 3 The value of percent of control at 10^−7 M was more than 60% or the value of IC50 was more than 200 nM.).

Turning to `COc1cccc(CC(=O)N[C@H]2CC[C@@H](Nc3nccc(N(C)C)n3)CC2)c1` [compound 285], the class under setting [1] was 3 (Class 3 The value of percent of control at 10^−7 M was more than 60% or the value of IC50 was more than 200 nM.).

Turning to `Cc1ccc(C(=O)N[C@H]2CC[C@@H](Nc3cc(N(C)C)c4ccccc4n3)CC2)cc1[N+](=O)[O-]` [compound 43, N-(cis-4-{[4-(dimethylamino)quinolin-2-yl]amino}cyclohexyl)-4-methyl-3-nitrobenzamide], the class under setting [2] is on record as 2 (Class 2: The value of percent of control at 10^−7 M was from 40% to 60% or the value of IC′50 was from 50 nM to 200 nM.).

As to `CN(C)c1nc(N[C@H]2CC[C@@H](NC(=S)Nc3ccc(-n4cccn4)cc3)CC2)nc2c1CCCC2` [compound 2082], the class under setting [2] is recorded as 3 (Class 3 The value of percent of control at 10^−7 M was more than 60% or the value of IC50 was more than 200 nM.).

`CN(C)c1nc(N[C@H]2CC[C@@H](NC(=O)Oc3ccc4ccccc4c3)CC2)nc2c1CCCC2` [compound 1589]: under setting [5], the class is given as 3 (Class 3 The value of percent of control at 10^−7 M was more than 60% or the value of IC50 was more than 200 nM.).

On to `CN(C)c1nc(N[C@H]2CC[C@@H](NC(=O)Cc3c(-c4ccccc4)[nH]c4ccccc34)CC2)nc2c1CCCC2` [compound 1005], for which the class under setting [6] was 1 (Class 1: The value of percent of control at 10^−7 M was less than 40% or the value of IC50 was less than 50 nM.).

Turning to `Cc1ccc(-c2ccc(C(=O)N[C@H]3CC[C@@H](Nc4cc(N(C)C)c5ccccc5n4)CC3)o2)c([N+](=O)[O-])c1` [compound 687], the class under setting [1] is given as 3 (Class 3 The value of percent of control at 10^−7 M was more than 60% or the value of IC50 was more than 200 nM.).

Take `CN(C)c1ccnc(N[C@H]2CC[C@@H](CNC(=O)CSc3ccccc3)CC2)n1` [compound 408]: the class under setting [1] is 3 (Class 3 The value of percent of control at 10^−7 M was more than 60% or the value of IC50 was more than 200 nM.).

As for `CN(C)c1cc(N[C@H]2CC[C@@H](NC(=O)c3cc(Br)c(Br)o3)CC2)nc2ccccc12` [compound 706], the class under setting [1] is given as 1 (Class 1: The value of percent of control at 10^−7 M was less than 40% or the value of IC50 was less than 50 nM.).

Consider `C=CCSc1ncccc1C(=O)N[C@H]1CC[C@@H](Nc2nc3c(c(N(C)C)n2)CCCC3)CC1` [compound 1059], for which the class under setting [6] was 3 (Class 3 The value of percent of control at 10^−7 M was more than 60% or the value of IC50 was more than 200 nM.).

In the case of `COC(=O)c1scc(C)c1NC(=S)N[C@H]1CC[C@@H](Nc2cc(N(C)C)c3ccccc3n2)CC1` [compound 2311], the class under setting [3] is on record as 2 (Class 2: The value of percent of control at 10^−7 M was from 40% to 60% or the value of IC′50 was from 50 nM to 200 nM.).

Regarding `COC(=O)NC[C@H]1CC[C@@H](Nc2cc(N(C)C)c3ccccc3n2)CC1` [compound 1575], the class under setting [5] was 3 (Class 3 The value of percent of control at 10^−7 M was more than 60% or the value of IC50 was more than 200 nM.).

`Cc1cc(N(C)C)nc(N[C@H]2CC[C@@H](NC(=O)c3ccc(F)c(C(F)(F)F)c3)CC2)n1` [compound 2961]: the class under setting [4] was 1 (Class 1: The value of percent of control at 10^−7 M was less than 40% or the value of IC50 was less than 50 nM.).

In the case of `CCCCNC(=S)N[C@H]1CC[C@@H](Nc2nc3c(c(N(C)C)n2)CCCC3)CC1` [compound 1930], the class under setting [2] is 3 (Class 3 The value of percent of control at 10^−7 M was more than 60% or the value of IC50 was more than 200 nM.).

Regarding `CN(C)c1nc(N[C@H]2CC[C@@H](NC(=O)CC(c3ccccc3)c3ccccc3)CC2)nc2c1CCCC2` [compound 1032], the class under setting [6] is given as 3 (Class 3 The value of percent of control at 10^−7 M was more than 60% or the value of IC50 was more than 200 nM.).
